According to patent US20220226329A1, “METHOD TO INDUCE HEMATOPOIETIC CHIMERISM” (The General Hospital Corporation, priority 2019, published 2022):
“And” between values parts separate entries of the source, which are not always exact repeats. Equal entries are not always repeated. “Also recorded” adds a separate entry of the source.

Legend:
[1] = system: Bcl-2, Bcl-xL, Bcl-w, Mcl-1; conditions: literature statements; cited from earlier work
[2] = system: hematopoietic stem cells (HSCs); assay: Drug-only study: HSC deletion in bone marrow (flow cytometry) and total CFU assay; assay type: in vivo, cynomolgus macaques; conditions: S63845 5 mg/kg x 5 alone
Description: In certain embodiments, the deletion of CD34^+ cells of the bone marrow can be determined using flow cytometry and comparing the amount of CD34^+ cells of the bone marrow to pre-treatment levels. The reduction in total colony forming units can be measured by a CFU assay and comparing the CFUs to pre-treatment levels.

[3] = system: BAX (the BCL-2-associated X protein); assay: Intrinsic apoptosis: expression of BAX and other apoptotic markers in peripheral lymphocytes (flow cytometry, CyTOF); assay type: in vivo, Cynomolgus monkeys; conditions: 10 mg/kg x 11 (day -4 to +6), TBI 1.5 Gy regimen, n=3
Description: To examine intrinsic apoptosis induced by ABT-199, expression of BAX (the BCL-2-associated X protein), which is pro-apoptotic protein that plays an important role in the mitochondria-dependent apoptotic pathway was assessed.
Flow cytometric and CyTOF analyses: Peripheral blood mononuclear cells (PBMCs) were labeled with a combination of the following mAbs: CD3 (SP34-2), CD4 (L200), CD8 (SK1), CD21 (B-ly4), CD27 (M-T271), CD28 (CD28.2), CD95 (DX2), and IgM (G20-127) (BD Pharmingen, San Jose, Calif.), CD20 (2H7) (Biolegend, Inc., San Diego, Calif.) and FOXP3 (236A/E7) (eBioscience, Inc., San Diego, Calif.). The fluorescence of the stained samples was analyzed using FACSverse (BD Biosciences, San Jose, Calif.) and Accuri flow cytometers (BD PharMingen), and FlowJo software (Tree Star, Inc., Ashland, Oreg.). A CyTOF panel for cynomolgus monkeys was designed. The CyTOF panel consisted of antibodies against various NHP leukocyte markers including CD3, CD4, CD8, Foxp3, CD127, CTLA4, Ki-67, CD95, CD20, CD21, CD27, CD38, CD123, CD31, CD11c, CD25, HLA-DR, CD45RA, CD159 (NKG2a), Granzyme B, Caspase 3/7/9, Bax and Cytochrom C.

[4] = Blood counts (CBC: white blood cells, neutrophils, platelets, HCT) after conditioning and transplantation; assay type: in vivo, Cynomolgus monkeys
Description: (§1) Combined kidney and bone marrow transplantation (CKBMT): All recipients were conditioned with total body irradiation (TBI) (1.5 Gy on day −5, relative to the day of CKBMT), local thymic irradiation (TI) (7 Gy on day −1) and equine-derived anti-thymocyte globulin (hATG) (Atgam; Pharmacia and Upjohn, Kalamazoo, Mich.; 50 mg/kg/day i.v. on days −2, −1 and 0). Following DBMT, the recipients were also treated with anti-CD154 mAb (5c8; 20 mg/kg i.v. on days 0 and 2, 7, and 12 post-DBMT). Cyclosporine A (CyA, Novartis, Basel, Switzerland) was administered intramuscular (IM) on days 0-27 post DBMT, after which no immunosuppression was administered (FIG. 6).
(§2) Statistical analyses: Statistical analysis was performed with GraphPad PRISM 7.01 (GraphPad Software, Inc, San Diego, Calif.). We used two way ANOVA to compare chimerism, CBC, and T cell subsets. Mantel-Cox log-rank test was used to analyze survival of different groups and. P values lower than 0.05 have been considered statistically significant.

Cynomolgus monkeys [5] = assay: Hematopoietic chimerism after combined kidney and bone marrow transplantation (CKBMT), flow cytometry of peripheral blood; assay type: in vivo; conditions: recipients with chimerism/total
Description: (§3) To evaluate whether Bcl-2 inhibitor (ABT-199) can promote engraftment of hematopoietic stem cells with reduced myelosuppressive therapy, monkeys were treated with various modified regimens with ABT-199 and compared with standard regimen without ABT-199. The basic conditioning regimen consisted of low dose total body irradiation (TBI), thymic irradiation (TI, 7 Gy) and peri-transplant ATG administration. After combined kidney and bone marrow transplantation, the recipients were treated with anti-CD154 mAb for 2 weeks and CyA for 4 weeks, after which no immunosuppression was given (FIG. 1). In Groups C-E, 10 mg/kg of ABT-199 was administered for 11 days (day −4 to day 6). Animals were divided into five groups according to the treatments (Table 1).
(§4) Animals and pair selections: Cynomolgus monkeys, including donor animals, weighing 4-8 kg were used for this study (Charles River Primates, Wilmington, Mass.). Donors and recipients were paired on the basis of ABO blood type compatibility and major histocompatibility complex (MHC) mismatching. MHC characterization was performed as previously described (O'Connor, S. L., et al. 2007, Immunogenetics 59, 449-462.; Pendley, C. J., et al. 2008, Immunogenetics 60, 339-351.). All surgical procedures and postoperative care of animals were performed in accordance with National Institute of Health guidelines for the care and use of primates and were approved by the Massachusetts General Hospital Institutional Animal Care and Use Committee (IACUC).
Following DBMT, the recipients were also treated with anti-CD154 mAb (5c8; 20 mg/kg i.v. on days 0 and 2, 7, and 12 post-DBMT). Cyclosporine A (CyA, Novartis, Basel, Switzerland) was administered intramuscular (IM) on days 0-27 post DBMT, after which no immunosuppression was administered (FIG. 6).
Bone marrow transplantation: Donor bone marrow cells (DBMC) were obtained by multiple aspirations from the iliac crests, humerus head, and vertebral bones under general anesthesia. If the donor animal was sacrificed, DBMC were harvested from the vertebral bones after euthanasia. DBMC (1.0-3.0×10^8 mononuclear cells/kg) were infused intravenously.
Detection of hematopoietic chimerism: A monkey was selected that was either BB7.6 (HLA-B7B40) positive or a H38 (HLA-BW6) positive monkey as a donor and a monkey negative to these antibodies was selected as a recipient. In all experiments, the percentage of cells that stained with each mAb was determined from one color fluorescence histogram and compared with those obtained from donor and pretreatment frozen recipient cells, which were used as positive and negative controls. The percentage of cells considered positive was determined with a cutoff chosen as the fluorescence level at the beginning of the positive peak for the positive control stain and by subtracting the percentage of cells stained with an isotype control. By using forward and 90° light scatter (FSC and SSC, respectively) dot plots, lymphocyte (FSC- and SSC-low), granulocyte (SSC-high), and monocyte (FSC-high but SSC-low) populations were gated, and chimerism was determined separately for each population. Nonviable cells were excluded by propidium iodide (Thermo Fischer Scientific, Grand Island, N.Y.) staining.

Cynomolgus monkeys [6] = assay: Renal allograft survival / rejection after CKBMT without maintenance immunosuppression; assay type: in vivo; conditions: per animal
Description: as §3, with “After combined kidney and bone marrow transplantation, the recipients were treated with anti-CD154 mAb for 2 weeks and CyA for 4 weeks, after which no immunosuppression was given (FIG. 1).” left out
as §4
as §1, with “Following DBMT, the recipients were also treated with anti-CD154 mAb (5c8; 20 mg/kg i.v. on days 0 and 2, 7, and 12 post-DBMT).” left out
Kidney transplantation (KTx): Monkeys underwent heterotopic KTx and nephrectomy as previously described (Cosimi, A. B., et al. 1990, Surgery 108, 406-413.).
as §2

[7] = Example 2 Group D: ABT-199 +, TBI 0 Gy, TI 7 Gy
[8] = Example 2 Group E: ABT-199 +, TBI 1.5 Gy, TI 0 Gy
[9] = Example 3 Group E: venetoclax +, TBI 1.5 Gy, TI 7 Gy, CoB Belatacept
[10] = Example 3 Group F: venetoclax +, TBI 1.5 Gy, TI 7 Gy, no CoB
[11] = Example 3 Group G: venetoclax +, TBI 1.5 Gy, TI 0 Gy, CoB aCD154
[12] = Example 3 Group H: venetoclax +, TBI 0 Gy, TI 7 Gy, CoB aCD154

## CN(C)CC[C@H](CSc1ccccc1)Nc1ccc(S(=O)(=O)NC(=O)c2ccc(N3CCN(Cc4ccccc4-c4ccc(Cl)cc4)CC3)cc2)cc1[N+](=O)[O-] [ABT-737]
[1]
  Selectivity among Bcl-2 family proteins: inhibits Bcl-2, Bcl-xL and Bcl-w but not Mcl-1

## Cc1c(-c2c(-c3ccc(F)o3)sc3ncnc(O[C@H](Cc4ccccc4OCc4ccnn4CC(F)(F)F)C(=O)O)c23)ccc(OCCN2CCN(C)CC2)c1Cl [S63845]
[2]
  HSCs in BM, % of the pretreatment level: 51%
  total colony forming units (CFU), % of pretreatment: 45%

## CC1(C)CCC(c2ccc(Cl)cc2)=C(CN2CCN(c3ccc(C(=O)NS(=O)(=O)c4ccc(N[C@H](CCN5CCOCC5)CSc5ccccc5)c(S(=O)(=O)C(F)(F)F)c4)cc3)CC2)C1 [navitoclax]
[3]
  Bax expression in T cells, B cells and NK cells compared to pre Rx levels: only observed with venetoclax but not with navitoclax
[4]; 10 mg/kg x 11, after treatment
  Platelet counts (thrombocytopenia): prolonged thrombocytopenia

## CC1(C)CCC(CN2CCN(c3ccc(C(=O)NS(=O)(=O)c4ccc(NCC5CCOCC5)c([N+](=O)[O-])c4)c(Oc4cnc5[nH]ccc5c4)c3)CC2)=C(c2ccc(Cl)cc2)C1 [venetoclax]
Cynomolgus monkeys [5]; Example 2 Group C: ABT-199 10 mg/kg x 11 days (day -4 to 6), TBI 1.5 Gy, TI 7 Gy
  Chimerism: 3/3
Cynomolgus monkeys [5]; [7]
  Chimerism: 0/2
Cynomolgus monkeys [5]; [8]
  Chimerism: 2/2
Cynomolgus monkeys [5]; Example 3 Group D: venetoclax 10 mg/kg x 11 IM, TBI 1.5 Gy, TI 7 Gy, CoB aCD154
  Chimerism: 5/5
Cynomolgus monkeys [5]; [9]
  Chimerism: 3/3
Cynomolgus monkeys [5]; [10]
  Chimerism: 0/2
Cynomolgus monkeys [5]; [11]
  Chimerism: 3/3
Cynomolgus monkeys [5]; [12]
  Chimerism: 0/2
Cynomolgus monkeys [6]; Example 2 Group C: ABT-199 +, TBI 1.5 Gy, TI 7 Gy
  Graft survival: > 316 days and > 637 days and > 301 days and > 313 days and > 361 days and > 646 days
Cynomolgus monkeys [6]; [7]
  Graft survival: 142 days and 100 days
Cynomolgus monkeys [6]; [8]
  Graft survival: 163 days and 100 days and 97 days
Cynomolgus monkeys [6]; Example 3 Group D: venetoclax +, TBI 1.5 Gy, TI 7 Gy, CoB aCD154
  Renal Allograft Survival (days): exceeding 1000 days
Cynomolgus monkeys [6]; Example 3 Group D: venetoclax +, TBI 1.5 Gy, TI 7 Gy, CoB aCD154, listed as Venetoclax
  Renal Allograft Survival (days): > 1071 days and > 735 days and > 313 days
Cynomolgus monkeys [6]; [9]
  Renal Allograft Survival (days): > 574 days and > 308 days
Cynomolgus monkeys [6]; Example 3 Group E: venetoclax +, TBI 1.5 Gy, TI 7 Gy, CoB Belatacept, listed as Venetoclax
  Renal Allograft Survival (days): > 574 days and > 308 days and 237 days
Cynomolgus monkeys [6]; [10]
  Renal Allograft Survival (days): 74 days and 127 days
Cynomolgus monkeys [6]; [11]
  Renal Allograft Survival (days): 97 days and 100 days and 163 days
Cynomolgus monkeys [6]; [12]
  Renal Allograft Survival (days): 120 days and 142 days
[4]; Example 2 Group C: ABT-199 +, TBI 1.5 Gy, TI 7 Gy, in contrast to Group A (TBI 3 Gy, no ABT-199)
  Pancytopenia / neutropenia: without development of severe pancytopenia; also recorded: without neutropenia
[4]; Example 3 Group D: venetoclax, TBI 1.5 Gy
  White blood cell counts, platelet counts, HCT (leukopenia, thrombocytopenia, anemia): no leukopenia, thrombocytopenia, or anemia; also recorded: stable
